Laboratory results from article PMC12621043, “Un-LOK-ing a New Approach for Conformational Selective Targeting of STK10 (LOK)” (ACS Medicinal Chemistry Letters, 2025).

Assays:
Assay in all cases: DSF Tm panel
Assay type in all cases: binding
Conditions in all cases: 10 μM compound
UKL3A (ULK3A) = molecular target: T1, UKL3A (ULK3A) (Homo sapiens, UniProt Q6PHR2)
T1 construct: purchased in-house DSF kinase panel (SGC-style construct names; the trailing letter is the construct ID)
T1 sequence (Q6PHR2 1-279): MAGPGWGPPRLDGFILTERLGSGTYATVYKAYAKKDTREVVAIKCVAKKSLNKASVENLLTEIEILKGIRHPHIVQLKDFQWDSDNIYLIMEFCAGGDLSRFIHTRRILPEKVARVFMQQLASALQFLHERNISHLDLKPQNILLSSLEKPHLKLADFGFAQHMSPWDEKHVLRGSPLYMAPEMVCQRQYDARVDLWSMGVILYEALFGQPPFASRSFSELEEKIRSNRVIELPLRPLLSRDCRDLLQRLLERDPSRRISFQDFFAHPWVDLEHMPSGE

PIM1 (PIM1A) = molecular target: T2, PIM1 (PIM1A) (Homo sapiens, UniProt P11309)
T2 construct: purchased in-house DSF kinase panel (SGC-style construct names; the trailing letter is the construct ID)
T2 sequence (P11309 whole entry): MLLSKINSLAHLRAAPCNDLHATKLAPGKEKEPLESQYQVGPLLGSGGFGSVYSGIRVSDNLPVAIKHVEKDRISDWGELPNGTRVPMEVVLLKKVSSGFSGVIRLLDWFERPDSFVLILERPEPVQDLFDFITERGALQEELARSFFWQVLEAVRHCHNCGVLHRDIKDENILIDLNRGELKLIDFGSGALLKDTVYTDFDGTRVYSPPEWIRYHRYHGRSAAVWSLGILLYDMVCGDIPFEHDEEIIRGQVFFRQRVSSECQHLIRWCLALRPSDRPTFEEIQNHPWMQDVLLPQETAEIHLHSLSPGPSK

MAPK1A = molecular target: T3, MAPK1A (Homo sapiens, UniProt P28482)
T3 construct: purchased in-house DSF kinase panel (SGC-style construct names; the trailing letter is the construct ID)
T3 sequence (P28482 whole entry): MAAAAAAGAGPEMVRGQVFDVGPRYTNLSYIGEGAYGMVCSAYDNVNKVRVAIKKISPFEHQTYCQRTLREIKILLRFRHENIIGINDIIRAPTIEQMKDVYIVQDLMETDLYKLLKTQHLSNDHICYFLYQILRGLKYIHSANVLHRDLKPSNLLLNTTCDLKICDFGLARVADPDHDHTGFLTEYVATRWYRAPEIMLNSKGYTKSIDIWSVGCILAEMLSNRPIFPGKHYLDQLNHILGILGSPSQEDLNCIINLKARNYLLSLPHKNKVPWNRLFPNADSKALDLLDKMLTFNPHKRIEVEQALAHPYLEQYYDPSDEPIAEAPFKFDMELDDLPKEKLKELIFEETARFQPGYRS

EPHA7A = molecular target: T4, EPHA7A (Homo sapiens, UniProt Q15375)
T4 construct: purchased in-house DSF kinase panel (SGC-style construct names; the trailing letter is the construct ID)
T4 sequence (Q15375 590-899): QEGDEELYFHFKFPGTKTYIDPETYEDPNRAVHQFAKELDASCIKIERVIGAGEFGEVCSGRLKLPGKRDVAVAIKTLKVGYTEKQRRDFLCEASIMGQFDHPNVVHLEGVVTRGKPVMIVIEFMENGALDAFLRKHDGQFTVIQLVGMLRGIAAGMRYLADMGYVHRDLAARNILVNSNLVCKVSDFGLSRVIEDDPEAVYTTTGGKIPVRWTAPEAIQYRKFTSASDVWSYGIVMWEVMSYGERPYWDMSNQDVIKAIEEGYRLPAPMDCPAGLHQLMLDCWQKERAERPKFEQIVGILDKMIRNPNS

DAPK3 (DAPK3A) = molecular target: T5, DAPK3 (DAPK3A) (Homo sapiens, UniProt O43293)
T5 construct: purchased in-house DSF kinase panel (SGC-style construct names; the trailing letter is the construct ID)
T5 sequence (O43293 whole entry): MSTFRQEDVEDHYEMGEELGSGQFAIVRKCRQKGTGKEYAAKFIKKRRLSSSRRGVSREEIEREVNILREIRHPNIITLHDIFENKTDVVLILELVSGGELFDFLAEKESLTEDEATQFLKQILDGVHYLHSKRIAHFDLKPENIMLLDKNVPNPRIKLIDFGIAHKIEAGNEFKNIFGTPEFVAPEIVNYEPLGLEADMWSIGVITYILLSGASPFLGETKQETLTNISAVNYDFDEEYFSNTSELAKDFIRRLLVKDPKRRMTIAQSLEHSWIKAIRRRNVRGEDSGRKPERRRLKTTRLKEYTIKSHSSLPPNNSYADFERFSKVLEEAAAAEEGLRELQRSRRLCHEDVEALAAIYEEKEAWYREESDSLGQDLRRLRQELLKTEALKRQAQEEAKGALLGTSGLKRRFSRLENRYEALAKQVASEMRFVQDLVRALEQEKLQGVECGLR

MARK4A = molecular target: T6, MARK4A (Homo sapiens, UniProt Q96L34)
T6 construct: purchased in-house DSF kinase panel (SGC-style construct names; the trailing letter is the construct ID)
T6 sequence (Q96L34 59-310): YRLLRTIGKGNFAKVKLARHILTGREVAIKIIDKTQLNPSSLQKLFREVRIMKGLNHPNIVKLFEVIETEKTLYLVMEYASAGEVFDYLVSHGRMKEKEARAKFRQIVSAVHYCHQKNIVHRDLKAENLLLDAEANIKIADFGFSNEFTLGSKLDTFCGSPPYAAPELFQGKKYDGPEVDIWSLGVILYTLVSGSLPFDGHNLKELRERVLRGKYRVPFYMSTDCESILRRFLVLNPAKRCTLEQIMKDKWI

MAP2K6A = molecular target: T7, MAP2K6A (Homo sapiens, UniProt P52564)
T7 construct: purchased in-house DSF kinase panel (SGC-style construct names; the trailing letter is the construct ID)
T7 sequence (P52564 53-314): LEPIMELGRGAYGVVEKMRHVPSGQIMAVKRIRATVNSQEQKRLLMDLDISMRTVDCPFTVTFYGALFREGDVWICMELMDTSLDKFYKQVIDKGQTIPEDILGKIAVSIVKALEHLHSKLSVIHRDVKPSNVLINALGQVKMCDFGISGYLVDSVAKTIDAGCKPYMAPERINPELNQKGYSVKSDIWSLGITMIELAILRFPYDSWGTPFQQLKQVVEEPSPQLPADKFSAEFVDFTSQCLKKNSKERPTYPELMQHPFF

SLK = SLK (Homo sapiens, UniProt Q9H2G2); design: purchased in-house DSF kinase panel (SGC-style construct names; the trailing letter is the construct ID)
AAK1 (AAK1A) = molecular target: T8, AAK1 (AAK1A) (Homo sapiens, UniProt Q2M2I8)
T8 construct: purchased in-house DSF kinase panel (SGC-style construct names; the trailing letter is the construct ID)
T8 sequence (Q2M2I8 27-365): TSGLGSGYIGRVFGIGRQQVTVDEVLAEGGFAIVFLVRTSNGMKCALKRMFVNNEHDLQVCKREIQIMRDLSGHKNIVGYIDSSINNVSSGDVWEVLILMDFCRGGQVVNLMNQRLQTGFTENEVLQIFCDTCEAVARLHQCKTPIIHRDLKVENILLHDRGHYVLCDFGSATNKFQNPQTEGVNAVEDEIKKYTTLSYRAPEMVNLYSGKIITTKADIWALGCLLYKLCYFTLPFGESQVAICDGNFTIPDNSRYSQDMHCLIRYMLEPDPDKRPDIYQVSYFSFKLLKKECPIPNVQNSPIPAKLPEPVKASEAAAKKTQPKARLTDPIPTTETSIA

FESA = molecular target: T9, FESA (Homo sapiens, UniProt P07332)
T9 construct: purchased in-house DSF kinase panel (SGC-style construct names; the trailing letter is the construct ID)
T9 sequence (P07332 whole entry): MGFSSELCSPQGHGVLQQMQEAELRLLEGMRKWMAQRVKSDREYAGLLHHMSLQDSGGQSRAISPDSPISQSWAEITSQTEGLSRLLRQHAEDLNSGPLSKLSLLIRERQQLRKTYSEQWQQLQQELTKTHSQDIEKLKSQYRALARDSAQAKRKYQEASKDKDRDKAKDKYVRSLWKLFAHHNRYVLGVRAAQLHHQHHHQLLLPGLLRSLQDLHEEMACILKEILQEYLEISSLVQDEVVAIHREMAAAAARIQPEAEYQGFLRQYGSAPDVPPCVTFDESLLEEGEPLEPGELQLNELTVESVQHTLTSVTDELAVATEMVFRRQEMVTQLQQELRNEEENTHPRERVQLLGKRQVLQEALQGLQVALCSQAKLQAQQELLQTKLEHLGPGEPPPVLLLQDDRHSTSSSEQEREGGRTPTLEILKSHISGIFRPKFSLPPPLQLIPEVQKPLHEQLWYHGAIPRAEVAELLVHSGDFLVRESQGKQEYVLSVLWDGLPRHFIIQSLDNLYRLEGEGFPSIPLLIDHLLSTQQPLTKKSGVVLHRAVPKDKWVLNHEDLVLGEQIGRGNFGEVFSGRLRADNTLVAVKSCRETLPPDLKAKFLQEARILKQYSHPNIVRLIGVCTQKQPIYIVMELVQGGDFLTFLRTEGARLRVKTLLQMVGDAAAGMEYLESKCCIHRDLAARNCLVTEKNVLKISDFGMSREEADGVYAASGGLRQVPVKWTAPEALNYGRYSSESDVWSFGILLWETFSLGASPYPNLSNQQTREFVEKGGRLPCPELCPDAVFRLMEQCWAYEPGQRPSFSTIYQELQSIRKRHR

CAMK2DA = molecular target: T10, CAMK2DA (Homo sapiens, UniProt Q13557)
T10 construct: purchased in-house DSF kinase panel (SGC-style construct names; the trailing letter is the construct ID)
T10 sequence (Q13557 11-309): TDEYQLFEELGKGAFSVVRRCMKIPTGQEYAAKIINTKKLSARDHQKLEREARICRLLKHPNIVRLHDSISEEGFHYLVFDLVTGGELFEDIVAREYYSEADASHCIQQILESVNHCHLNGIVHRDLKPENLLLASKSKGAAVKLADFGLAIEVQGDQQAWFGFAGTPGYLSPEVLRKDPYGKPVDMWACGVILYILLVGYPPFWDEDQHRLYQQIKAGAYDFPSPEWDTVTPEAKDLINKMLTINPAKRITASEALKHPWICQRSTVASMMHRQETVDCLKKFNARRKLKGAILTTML

MAPK10A = molecular target: T11, MAPK10A (Homo sapiens, UniProt P53779)
T11 construct: purchased in-house DSF kinase panel (SGC-style construct names; the trailing letter is the construct ID)
T11 sequence (P53779 39-402): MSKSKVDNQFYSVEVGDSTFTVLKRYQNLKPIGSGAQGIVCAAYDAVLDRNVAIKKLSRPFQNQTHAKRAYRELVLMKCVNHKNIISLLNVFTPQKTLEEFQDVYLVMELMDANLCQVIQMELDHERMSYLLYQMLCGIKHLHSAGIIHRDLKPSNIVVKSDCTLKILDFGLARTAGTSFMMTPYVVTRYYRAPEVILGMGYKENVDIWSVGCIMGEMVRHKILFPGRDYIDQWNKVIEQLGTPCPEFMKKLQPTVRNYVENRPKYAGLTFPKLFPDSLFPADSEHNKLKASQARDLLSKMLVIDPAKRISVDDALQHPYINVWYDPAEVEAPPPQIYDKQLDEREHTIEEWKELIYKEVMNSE

STK3 (STK3A) = molecular target: T12, STK3 (STK3A) (Homo sapiens, UniProt Q13188)
T12 construct: purchased in-house DSF kinase panel (SGC-style construct names; the trailing letter is the construct ID)
T12 sequence (Q13188 16-313): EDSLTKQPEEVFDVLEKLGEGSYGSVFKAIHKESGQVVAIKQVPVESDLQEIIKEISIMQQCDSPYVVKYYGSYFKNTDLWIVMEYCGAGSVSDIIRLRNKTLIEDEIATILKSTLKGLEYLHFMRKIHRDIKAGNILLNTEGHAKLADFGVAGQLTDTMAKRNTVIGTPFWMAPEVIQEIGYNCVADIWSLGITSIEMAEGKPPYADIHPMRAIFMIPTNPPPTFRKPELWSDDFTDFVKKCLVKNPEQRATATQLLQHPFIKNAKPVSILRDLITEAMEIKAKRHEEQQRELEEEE

BMP2KA = molecular target: T13, BMP2KA (Homo sapiens, UniProt Q9NSY1)
T13 construct: purchased in-house DSF kinase panel (SGC-style construct names; the trailing letter is the construct ID)
T13 sequence (Q9NSY1 38-345): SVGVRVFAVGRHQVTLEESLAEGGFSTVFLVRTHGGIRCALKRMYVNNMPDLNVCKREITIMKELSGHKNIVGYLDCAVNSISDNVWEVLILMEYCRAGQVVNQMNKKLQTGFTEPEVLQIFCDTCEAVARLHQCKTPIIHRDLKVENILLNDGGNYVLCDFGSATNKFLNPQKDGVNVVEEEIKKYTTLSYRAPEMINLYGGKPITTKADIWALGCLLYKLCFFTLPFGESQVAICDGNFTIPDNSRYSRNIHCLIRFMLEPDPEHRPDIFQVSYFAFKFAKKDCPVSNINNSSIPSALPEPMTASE

RPS6KA1A = test system: RPS6KA1A
CASKA = molecular target: T14, CASKA (Homo sapiens, UniProt O14936)
T14 construct: purchased in-house DSF kinase panel (SGC-style construct names; the trailing letter is the construct ID)
T14 sequence (O14936 12-276): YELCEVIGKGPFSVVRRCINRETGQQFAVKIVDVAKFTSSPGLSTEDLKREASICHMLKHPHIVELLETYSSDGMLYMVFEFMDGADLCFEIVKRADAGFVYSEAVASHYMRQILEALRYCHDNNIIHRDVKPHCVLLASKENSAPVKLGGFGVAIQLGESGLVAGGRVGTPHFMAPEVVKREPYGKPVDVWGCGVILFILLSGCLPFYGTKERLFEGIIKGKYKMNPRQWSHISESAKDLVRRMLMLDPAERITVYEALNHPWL

STK10 = molecular target: T15, STK10 (Homo sapiens, UniProt O94804)
T15 construct: purchased in-house DSF kinase panel (SGC-style construct names; the trailing letter is the construct ID)
T15 sequence (O94804 18-317 limits assumed): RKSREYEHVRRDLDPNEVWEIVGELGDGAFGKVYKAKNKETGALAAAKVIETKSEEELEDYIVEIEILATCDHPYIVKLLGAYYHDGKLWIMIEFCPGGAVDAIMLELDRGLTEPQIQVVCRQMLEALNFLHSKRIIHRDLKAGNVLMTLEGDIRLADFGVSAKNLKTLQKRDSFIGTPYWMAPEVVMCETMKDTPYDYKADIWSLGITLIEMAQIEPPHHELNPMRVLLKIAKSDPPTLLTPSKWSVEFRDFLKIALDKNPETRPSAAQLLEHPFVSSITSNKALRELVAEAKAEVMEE

MARK3A = molecular target: T16, MARK3A (Homo sapiens, UniProt P27448)
T16 construct: purchased in-house DSF kinase panel (SGC-style construct names; the trailing letter is the construct ID)
T16 sequence (P27448 56-307): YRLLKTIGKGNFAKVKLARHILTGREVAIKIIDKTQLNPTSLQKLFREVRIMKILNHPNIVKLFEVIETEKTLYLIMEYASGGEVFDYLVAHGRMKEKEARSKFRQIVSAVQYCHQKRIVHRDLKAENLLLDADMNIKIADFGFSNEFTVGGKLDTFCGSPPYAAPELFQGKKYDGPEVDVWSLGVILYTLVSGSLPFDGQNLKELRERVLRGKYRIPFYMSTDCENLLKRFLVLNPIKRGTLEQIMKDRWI

DMPK1A = molecular target: T17, DMPK1A (Homo sapiens, UniProt Q09013)
T17 construct: purchased in-house DSF kinase panel (SGC-style construct names; the trailing letter is the construct ID)
T17 sequence (Q09013 1-629): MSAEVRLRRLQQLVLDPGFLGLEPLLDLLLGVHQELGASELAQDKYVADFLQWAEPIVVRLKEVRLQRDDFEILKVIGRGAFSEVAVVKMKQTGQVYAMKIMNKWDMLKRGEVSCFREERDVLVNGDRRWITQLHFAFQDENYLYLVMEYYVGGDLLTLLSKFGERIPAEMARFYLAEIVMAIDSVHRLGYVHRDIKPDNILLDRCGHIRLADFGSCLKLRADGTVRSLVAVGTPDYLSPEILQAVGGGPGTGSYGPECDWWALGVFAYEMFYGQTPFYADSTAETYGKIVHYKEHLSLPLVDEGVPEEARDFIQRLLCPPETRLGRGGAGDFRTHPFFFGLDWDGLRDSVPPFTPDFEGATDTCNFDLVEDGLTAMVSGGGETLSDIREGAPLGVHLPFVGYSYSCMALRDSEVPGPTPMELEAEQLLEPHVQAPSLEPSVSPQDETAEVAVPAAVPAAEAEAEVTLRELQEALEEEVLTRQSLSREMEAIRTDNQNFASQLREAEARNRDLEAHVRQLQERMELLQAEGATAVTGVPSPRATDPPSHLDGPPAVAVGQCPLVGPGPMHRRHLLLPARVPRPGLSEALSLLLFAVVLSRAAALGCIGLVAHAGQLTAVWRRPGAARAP

MAP3K5A = molecular target: T18, MAP3K5A (Homo sapiens, UniProt Q99683)
T18 construct: purchased in-house DSF kinase panel (SGC-style construct names; the trailing letter is the construct ID)
T18 sequence (Q99683 659-951): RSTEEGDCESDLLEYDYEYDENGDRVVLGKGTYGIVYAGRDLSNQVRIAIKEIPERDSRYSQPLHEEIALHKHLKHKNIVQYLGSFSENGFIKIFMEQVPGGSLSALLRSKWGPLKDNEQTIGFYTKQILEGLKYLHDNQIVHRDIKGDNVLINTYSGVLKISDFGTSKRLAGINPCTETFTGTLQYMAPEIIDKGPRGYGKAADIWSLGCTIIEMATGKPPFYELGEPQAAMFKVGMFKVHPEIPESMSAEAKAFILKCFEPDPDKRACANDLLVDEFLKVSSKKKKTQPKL

ΔTm at 10 µM (UKL3A (ULK3A))	ΔTm at 10 µM (PIM1 (PIM1A))	ΔTm at 10 µM (MAPK1A)	ΔTm at 10 µM (EPHA7A)	ΔTm at 10 µM (DAPK3 (DAPK3A))	ΔTm at 10 µM (MARK4A)	ΔTm at 10 µM (MAP2K6A)	ΔTm at 10 µM (SLK)	ΔTm at 10 µM (AAK1 (AAK1A))	ΔTm at 10 µM (FESA)	ΔTm at 10 µM (CAMK2DA)	ΔTm at 10 µM (MAPK10A)	ΔTm at 10 µM (STK3 (STK3A))	ΔTm at 10 µM (BMP2KA)	ΔTm at 10 µM (CASKA)	ΔTm at 10 µM (STK10)	ΔTm at 10 µM (MARK3A)	ΔTm at 10 µM (DMPK1A)	ΔTm at 10 µM (MAP3K5A)	Compound	ΔTm RPS6KA1A (RPS6KA1A)
4.1 °C	0.6 °C	0.7 °C	1.9 °C	1.8 °C	0.9 °C	0.8 °C	1.6 °C	5.9 °C	1.3 °C	2.2 °C	0.1 °C	3.6 °C	9.1 °C	1 °C	5.6 °C	0 °C	0 °C	0.8 °C	C[C@H](NC(=O)Nc1ccc2cc1OCCOCCNc1ccn3ncc-2c3n1)c1ccccc1 [compound 34]	0,4 °C
4.4 °C	1 °C	0.6 °C	1.5 °C	1.2 °C	1.5 °C	0.9 °C	2.1 °C	6.3 °C	1.4 °C	2.3 °C	0.5 °C	3.7 °C	9.8 °C	0.9 °C	7.1 °C	-0.3 °C	0.4 °C	1.5 °C	COc1cccc(CNC(=O)Nc2ccc3cc2OCCOCCNc2ccn4ncc-3c4n2)c1 [compound 30]	0,6 °C
